Measurements published in patent US12011444B2, “N-substituted indole derivatives as PGE2 receptor modulators” (Idorsia Pharmaceuticals Ltd, priority 2015, dated 2024).

Assays:
[1] = target: PTGER2 (EP2) (Homo sapiens (Human), UniProt P43116); assay: hEP2 b-arrestin assay (PathHunter HEK 293 PTGER2 b-arrestin cells); type: cell-based
In short: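 HEK293 cells expressing ProLink-tagged EP2 and EA-fused β-arrestin 2 (enzyme fragment complementation) were seeded 24 h, pre-incubated with compound 15 min at 37 °C, then stimulated with 5 μM PGE2 (final) for 120 min.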

[2] = target: PTRGER4 (EP4) (Homo sapiens (Human), UniProt P35408); assay: hEP4 b-arrestin assay (PathHunter HEK 293 PTGER4 b-arrestin cells); type: cell-based
Chain of PTRGER4 (EP4) (P35408 whole entry, looked up, the tested form may be a part): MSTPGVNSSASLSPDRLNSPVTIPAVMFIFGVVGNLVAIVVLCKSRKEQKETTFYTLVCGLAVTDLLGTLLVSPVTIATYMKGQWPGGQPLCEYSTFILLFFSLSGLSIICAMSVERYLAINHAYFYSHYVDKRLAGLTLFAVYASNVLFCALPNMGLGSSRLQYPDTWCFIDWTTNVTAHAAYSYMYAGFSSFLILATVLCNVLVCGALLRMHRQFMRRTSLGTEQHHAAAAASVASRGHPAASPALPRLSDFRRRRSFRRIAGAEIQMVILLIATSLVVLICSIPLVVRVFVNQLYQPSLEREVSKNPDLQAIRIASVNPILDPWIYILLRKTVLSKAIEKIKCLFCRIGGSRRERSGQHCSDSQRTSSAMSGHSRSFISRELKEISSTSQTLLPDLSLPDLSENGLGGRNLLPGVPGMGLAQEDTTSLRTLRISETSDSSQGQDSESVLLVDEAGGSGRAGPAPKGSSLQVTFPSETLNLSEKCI
In short: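 Stably transfected HEK293 cells carrying EP4–ProLink and β-arrestin 2–EA (β-gal fragment complementation), pre-incubated with compound 15 min at 37 °C, then stimulated with PGE2 (20 nM final) for 120 min at 37 °C. Chemiluminescence read after 1 h detection reagent at room temperature; activity per concentration expressed as percent of DMSO control.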

[3] = antagonistic activity on hEP2, mean where measured multiple times
[4] = antagonistic activity on hEP4, mean where measured multiple times
[5] = hEP2 b-arrestin assay (values without asterisk)
[6] = hEP4 b-arrestin assay (values without asterisk)

Chain of PTGER2 (EP2) (P43116 whole entry, the tested form may be a part): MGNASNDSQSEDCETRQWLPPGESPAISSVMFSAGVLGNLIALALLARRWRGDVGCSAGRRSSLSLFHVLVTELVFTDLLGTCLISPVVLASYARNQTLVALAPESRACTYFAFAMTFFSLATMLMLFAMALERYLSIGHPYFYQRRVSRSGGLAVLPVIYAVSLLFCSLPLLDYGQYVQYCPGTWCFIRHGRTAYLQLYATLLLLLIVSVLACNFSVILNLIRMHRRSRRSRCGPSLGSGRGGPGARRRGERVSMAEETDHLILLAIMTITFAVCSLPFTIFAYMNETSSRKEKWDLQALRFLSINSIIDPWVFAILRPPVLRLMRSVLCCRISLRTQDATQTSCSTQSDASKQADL

IC50 [1, 3]	IC50 [2, 4]	IC50 [1, 5]	IC50 [2, 6]	SMILES
51 nM	697 nM			CCOc1cc(-c2cc(NCCn3c(C)cc4c(OC)ccc(F)c43)ncn2)ccc1S(N)(=O)=O [compound 377]
		18 nM	42 nM	CCCOc1cc(-c2cc(NCCn3c(C#N)cc4c(OC)ccc(F)c43)ncn2)ccc1C(=O)O [Example 950, 4-{6-[2-(2-Cyano-7-fluoro-4-methoxy-indol-1-yl)-ethylamino]-pyrimidin-4-yl}-2-propoxy-benzoic acid]
67 nM	678 nM			COc1ccc(F)c2c1cc(C)n2CCNc1cc(-c2ccc(C(=O)NCCO)cc2)ncn1 [compound 361]
		39 nM	99 nM	COCCNC(=O)c1ccc(-c2cc(NCCn3c(C#N)cc4c(OC)ccc(F)c43)ncn2)cc1 [Example 996, 4-{6-[2-(2-Cyano-7-fluoro-4-methoxy-indol-1-yl)-ethylamino]-pyrimidin-4-yl}-N-(2-methoxy-ethyl)-benzamide]
4 nM	20 nM			CCOc1cc(-c2cc(NCCn3c(C)cc4c(C)cc(Cl)cc43)ncn2)sc1C(=O)O [compound 224]
		11 nM	55 nM	CCOc1cc(-c2cc(NCCn3c(C)cc4c(OC)cc(F)cc43)ncn2)ccc1NCC(=O)O [Example 882, (2-Ethoxy-4-{6-[2-(6-fluoro-4-methoxy-2-methyl-indol-1-yl)-ethylamino]-pyrimidin-4-yl}-phenylamino)-acetic acid]
		19 nM	36 nM	COc1ccc(F)c2c1cc(C)n2CCNc1cc(-c2cc(C(F)(F)F)c(C(=N)NO)s2)ncn1 [Example 1061, 5-{6-[2-(7-Fluoro-4-methoxy-2-methyl-indol-1-yl)-ethylamino]-pyrimidin-4-yl}-N-hydroxy-3-trifluoromethyl-thiophene-2-carboxamidine]
		54 nM	10 nM	COc1ccc(F)c2c1cc(C#N)n2CCNc1cc(-c2ccc(C(=O)O)c(CC(C)C)c2)ncn1 [Example 946, 4-{6-[2-(2-Cyano-7-fluoro-4-methoxy-indol-1-yl)-ethylamino]-pyrimidin-4-yl}-2-isobutyl-benzoic acid]
89 nM	164 nM			CCc1cc(-c2cc(NCCn3c(C)cc4c(OC)ccc(Cl)c43)ncn2)cc(Cl)c1C(=O)O [compound 345]
9 nM	71 nM			CCNc1cc(-c2cc(NCCn3c(C)cc4c(C)ccc(F)c43)ncn2)ccc1C(=O)O [compound 245]
3 nM	204 nM			CNc1cc(-c2cc(NCCn3c(C)cc4c(OC)cccc43)ncn2)ccc1C(=O)O [compound 213]
11 nM	144 nM			COc1cccc2c1cc(C)n2CCNc1cc(-c2ccc3c(c2)CCN3)ncn1 [compound 12, [6-(2,3-Dihydro-1H-indol-5-yl)-pyrimidin-4-yl]-[2-(4-methoxy-2-methyl-indol-1-yl)-ethyl]-amine]
		3 nM	11 nM	COC(=O)c1ccc2[nH]c(-c3cc(NCCn4c(C#N)cc5c(OC)ccc(F)c54)ncn3)cc2c1 [Example 962, 2-{6-[2-(2-Cyano-7-fluoro-4-methoxy-indol-1-yl)-ethylamino]-pyrimidin-4-yl}-1H-indole-5-carboxylic acid methyl ester]
72 nM	439 nM			COc1ccc(F)c2c1cc(C)n2CCNc1cc(-c2ccc(-c3csc(C)n3)cc2)ncn1 [compound 321]
10 nM	172 nM			COc1cccc2c1cc(C)n2CCNc1cc(-c2ccc(-c3noc(=O)[nH]3)cc2)ncn1 [compound 194, 3-(4-{6-[2-(4-Methoxy-2-methyl-indol-1-yl)-ethylamino]-pyrimidin-4-yl}-phenyl)-4H-[1,2,4]oxadiazol-5-one]
214 nM	970 nM			Cc1ccc(F)c2c1cc(C)n2CCNc1cc(-c2ccc(-n3cccn3)cc2)ncn1 [compound 73]
61 nM	117 nM			Cc1cc(F)cc2c1cc(C)n2CCNc1cc(-c2cc(C(F)(F)F)c(C(=O)O)s2)ncn1 [compound 269]

IC50 [1, 3]	IC50 [2, 4]	IC50 [1, 5]	IC50 [2, 6]	SMILES
8 nM	89 nM			COc1cccc2c1cc(C)n2CCNc1cc(-c2ccc(-c3c[nH]cn3)cc2)ncn1 [compound 77, {6-[4-(1H-Imidazol-4-yl)-phenyl]-pyrimidin-4-yl}-[2-(4-methoxy-2-methyl-indol-1-yl)-ethyl]-amine]
11 nM	102 nM			COc1ccc(F)c2c1cc(C)n2CCNc1cc(-c2ccc(-c3nnc[nH]3)cc2)ncn1 [compound 208, [2-(7-Fluoro-4-methoxy-2-methyl-indol-1-yl)-ethyl]-{6-[4-(4H-[1,2,4]triazol-3-yl)-phenyl]-pyrimidin-4-yl}-amine]
320 nM	873 nM			COc1cc(F)cc2c1cc(C)n2CCNc1cc(-c2ccc(N3CCCC3=O)cc2)ncn1 [compound 317]
		1 nM	49 nM	N#Cc1cc2c(Cl)cc(F)c(F)c2n1CCNc1cc(-c2cc(F)c(C(=O)O)s2)ncn1 [Example 904, 5-{6-[2-(4-Chloro-2-cyano-6,7-difluoro-indol-1-yl)-ethylamin0]-pyrimidin-4-yl}-3-fluoro-thiophene-2-carboxylic acid]
		19 nM	31 nM	CCOc1cc(-c2cc(NCCn3c(C)cc4c(C)cc(F)cc43)ncn2)ccc1-c1noc(=O)[nH]1 [Example 835, 3-(2-Ethoxy-4-{6-[2-(6-fluoro-2,4-dimethyl-indol-1-yl)-ethylamino]-pyrimidin-4-yl}-phenyl)-[1,2,4]oxadiazol-5(4H)-one]
		248 nM	244 nM	COc1ccc(F)c2c1cc(C#N)n2CCNc1cc(-c2ccc(CNS(C)(=O)=O)cc2)ncn1 [Example 983, N-(4-{6-[2-(2-Cyano-7-fluoro-4-methoxy-indol-1-yl)-ethylamino]-pyrimidin-4-yl}-benzyl)-methanesulfonamide]
3 nM	46 nM			CCc1cc(-c2cc(NCCn3c(C)cc4c(OC)cccc43)ncn2)sc1C(=O)O [compound 110]
		5 nM	21 nM	CCSc1cc(-c2cc(NCCn3c(C#N)cc4c(OC)cccc43)ncn2)ccc1C(=O)O [Example 952, 4-{6-[2-(2-Cyano-4-methoxy-indol-1-yl)-ethylamino]-pyrimidin-4-yl}-2-ethylsulfanyl-benzoic acid]
		6 nM	18 nM	COc1ccc(F)c2c1cc(C#N)n2CCNc1cc(-c2ccc3[nH]c(=O)oc3c2)ncn1 [Example 972, 7-Fluoro-4-methoxy-1-{2-[6-(2-oxo-2,3-dihydro-benzooxazol-6-yl)-pyrimidin-4-ylamino]-ethyl}-1H-indole-2-carbonitrile]
1 nM	43 nM			CCOc1cc(-c2cc(NCCn3c(C)cc4c(F)cc(F)c(F)c43)ncn2)sc1C(=O)O [compound 274]
		3 nM	6 nM	CCOc1cc(-c2cc(NCCn3c(C#N)cc4c(C)cc(F)c(F)c43)ncn2)sc1C(=O)O [Example 942, 5-{6-[2-(2-Cyano-6,7-difluoro-4-methyl-indol-1-yl)-ethylamino]-pyrimidin-4-yl}-3-ethoxy-thiophene-2-carboxylic acid]
		5 nM	21 nM	CCSc1cc(-c2cc(NCCn3c(C#N)cc4c(OC)ccc(F)c43)ncn2)ccc1C(=O)O [Example 953, 4-{6-[2-(2-Cyano-7-fluoro-4-methoxy-indol-1-yl)-ethylamino]-pyrimidin-4-yl}-2-ethylsulfanyl-benzoic acid]
		39 nM	589 nM	CCOc1cc(-c2cc(NCCn3c(C)cc4c(OC)ccc(F)c43)ncn2)ccc1-c1nc2ccccc2o1 [Example 849, [6-(4-Benzooxazol-2-yl-3-ethoxy-phenyl)-pyrimidin-4-yl]-[2-(7-fluoro-4-methoxy-2-methyl-indol-1-yl)-ethyl]-amine]
7 nM	95 nM			COc1cccc2c1cc(C)n2CCNc1cc(-c2ccc(-c3ccn[nH]3)cc2)ncn1 [compound 75, [2-(4-Methoxy-2-methyl-indol-1-yl)-ethyl]-{6-[4-(2H-pyrazol-3-yl)-phenyl]-pyrimidin-4-yl}-amine]
		4 nM	41 nM	COc1cc(F)cc2c1cc(C)n2CCNc1cc(-c2cc(OCC(F)(F)F)c(C(=O)O)s2)ncn1 [Example 838, 5-{6-[2-(6-Fluoro-4-methoxy-2-methyl-indol-1-yl)-ethylamino]-pyrimidin-4-yl}-3-(2,2,2-trifluoro-ethoxy)-thiophene-2-carboxylic acid]
16 nM	417 nM			CCOc1cc(-c2cc(NCCn3c(C)cc4c(C)cccc43)ncn2)ccc1C(=O)O [compound 128, 4-{6-[2-(2,4-Dimethyl-indol-1-yl)-ethylamino]-pyrimidin-4-yl}-2-ethoxy-benzoic acid]
7 nM	124 nM			COc1ccc(F)c2c1cc(C)n2CCNc1cc(-c2ccc(-c3ncno3)cc2)ncn1 [compound 186, [2-(7-Fluoro-4-methoxy-2-methyl-indol-1-yl)-ethyl]-[6-(4-[1,2,4]oxadiazol-5-yl-phenyl)-pyrimidin-4-yl]-amine]

SMILES	IC50 [1, 3]	IC50 [2, 4]	IC50 [1, 5]	IC50 [2, 6]
CCCCOc1cc(-c2cc(NCCn3c(C#N)cc4c(OC)ccc(F)c43)ncn2)ccc1C(=O)O [Example 872, 2-Butoxy-4-{6-[2-(2-cyano-7-fluoro-4-methoxy-indol-1-yl)-ethylamino]-pyrimidin-4-yl}-benzoic acid]			12 nM	18 nM
CCCCOc1cc(-c2cc(NCCn3c(C)cc4c(OC)cc(Cl)c(F)c43)ncn2)ccc1C(=O)O [Example 884, 2-Butoxy-4-{6-[2-(6-chloro-7-fluoro-4-methoxy-2-methyl-indol-1-yl)-ethylamino]-pyrimidin-4-yl}benzoic acid]			10 nM	84 nM
